{
  "source": "patent US8129121B2",
  "about": "“Regulation of lipid droplet formation by modulation of FIT1 and FIT2 and uses thereof” (Albert Einstein College of Medicine of Yeshiva University, priority 2007, dated 2012)",
  "key": {"NIH-3T3 L1 adipocytes": {"system": "NIH-3T3 L1 adipocytes", "assay": "Lentivirus shRNA knockdown of FIT2 in NIH-3T3 L1 cells during adipogenesis: lipid droplets, differentiation markers, TG biosynthesis, lipolysis", "assay_type": "cell-based, mouse", "excerpt": "(§1) FIG. 4A-4C. shRNAi mediated knockdown of FIT2. NIH-3T3 or RAW246.7 cells were infected with lentivirus expressing shRNA sequence targeting murine FIT2 (FIT2shRNA), or control shRNA (contshRNA), or no lentivirus (control). (A) FIT2shRNA reduced lipid droplet formation during NIH-3T3 cell differentiation (days of differentiation are shown above image) as visualized by BODIPY493/503 staining. […] Expression of differentiation markers Apt and PPARgamma, were not changed in FIT2shRNA treated cells compared to controls.\nFIG. 11A-11B. Triglyceride biosynthesis and lipolysis assays in FIT2 knockdown cells. (A) Triglyceride synthesis measurements were performed at each time point during differentiation using ^14C glycerol and TLC analysis of triglyceride levels quantified by PhosphorImager analysis. Each time point contained 3 independent samples for each condition, and represented as mean±std, p<0.001. […] (B) Lipolysis assays performed on cell lysates from NIH 3T3-L1 cells at day 4 and day 6 of differentiation. No differences were observed between control and shRNAcont and FIT2shRNA adipocytes.\nCell culture. HEK293, and HeLa cells were grown in DMEM 10% FBS. NIH-3T3 L1 adipocytes were a kind gift from Philip Scherer and grow and differentiated by standard methods (24).\nTriglyceride biosynthesis and DGAT assays. Cells in culture were incubated with 7.5 μCi/mL of 14C-glycerol (Specific activity: 125-180 mCi/mmol, NEN-Amersham) for the indicated times, followed by extraction with HIP and separation by TLC as referenced above. Radioactive triglycerides were quantified using PhosphorImager analysis and represented as a rate of triglyceride production using arbitrary units obtained from PhosphorImager analysis.\nLipase activity assay. Total cellular lipase activity was measured using the established method of Holm and Osterlund in Methods in Molecular Biology 1999; 109, p 109-121.\n(§2) Double stranded shRNA DNAs were used to generate lentiviruses using the U6 promoter driven BLOCK-iT Lentivirus RNAi expression system (Invitrogen Corporation). Knockdown of human FIT2 in HEK293 cells was performed by stably transfection using pEntryU6 vector (Invitrogen Corp). NIH-3T3 L1 pre-adipocytes and HepG2 cells were infected with an MOI of 10-50.\n(§3) shRNA suppression of FIT2 abolishes lipid droplet formation during adipogenesis. To provide a direct test if FIT proteins are essential for the formation of lipid droplets, knockdown of FIT expression was sought in established cellular models of lipid droplet formation. […]"}, "FIT2": {"system": "FIT2", "assay": "Lentivirus shRNA knockdown of FIT2 in NIH-3T3 L1 cells, FIT2 mRNA and protein", "assay_type": "cell-based, mouse", "conditions": "adipocytes infected with lentivirus, vs control shRNA or no virus", "excerpt": "as §1\nLentivirus shRNA. The following short hairpin RNA (shRNA) sequences (sense strand shown) were used to knockdown mouse FIT2 expression: shRNAcont, […] (SEQ ID NO:20); shRNAFIT2, (SEQ ID NO:21) […].\nas §2, §3"}},
  "data": [
    {"substance": "FIT2 shRNA: lentivirus-expressed short hairpin RNA targeting murine FIT2, SEQ ID NO:21 (CACCGCACCATGTTTGGTTTGTTGGCGAACCAACAAACCAAACATGGTGC)", "values": [
      {"measurement": "Triglyceride biosynthesis", "setting": "NIH-3T3 L1 adipocytes; 14C glycerol, TLC, knockdown adipocytes compared to controls", "value": "similar"},
      {"measurement": "lipid droplets", "setting": "NIH-3T3 L1 adipocytes; BODIPY493/503 staining, pre-adipocytes (day 0) and mature adipocytes (day 4 to 9)", "value": "almost complete absence of lipid droplets"},
      {"measurement": "expression of PPARgamma and AP2 (markers of adipocyte differentiation)", "setting": "NIH-3T3 L1 adipocytes; FIT2 suppressed cells, Northern blot", "value": "not changed"},
      {"measurement": "triglyceride lipase activities", "setting": "NIH-3T3 L1 adipocytes; cell lysates at day 4 and day 6 of differentiation, compared to controls", "value": "similar"},
      {"measurement": "FIT2 mRNA", "setting": "FIT2; Northern blot", "value": "significantly suppressed"},
      {"measurement": "FIT2 protein", "setting": "FIT2; Western blot", "value": "significantly suppressed"}
    ]}
  ]
}
